Tests used:
Type in all cases: in vivo
[1] = test system: Stomoxis calcitrans (stable fly); assay: Release of alkylated porphyrin from flies after feeding with bait interrupted; details: S. calcitrans, 1.25 μM porphyrin in the bait
Description: (§1) An appropriate number of flies (50 flies per each experiment) was caged in 115×55×70 mm Plexiglas cages with several holes (ø=0.5 mm) and starved for 36 h. Then, depending on the protocol to be adopted for each specific experiment, the flies were fed with the bait (10% sucrose and 1% autolysed yeast in neutral aqueous solution), which was either porphyrin-free or added with a predetermined concentration of the porphyrin. These flies were then used in the various experimental sessions.
(§2) At predetermined times, the flies were sacrificed by freezing; the dead flies were then homogenized with a Polytron in 10 ml of a 2% aqueous solution of sodium dodecylsulphate (SDS). The suspension was centrifuged for 10 min at 2,000 rpm, the pellet was discarded and known aliquots of the supernatant were diluted by means of a chloroform/methanol binary mixture (1/2, v/v). The porphyrin concentration was measured by reading the fluorescence emitted at wavelengths above 630 nm and interpolating the emission intensity with a calibration plot obtained with known amounts of the porphyrin. The results were expressed as nanomoles of porphyrin recovered per fly.

[2] = test system: Ceratitis capitata (fruit fly); assay: as above; details: C. capitata, 1.25 μM porphyrin in the bait
Description: as §1, §2

[3] = test system: Bactrocera oleae (olive fly); assay: as above; details: B. oleae, 1.25 μM porphyrin in the bait
Description: as §1, §2

Ceratitis capitata flies [4] = assay: Photoinsecticidal action: fly survival after bait and sunlight irradiation; details: 3 μM in bait, 12 h after feeding, survival 1 h after irradiation
Bactrocera oleae flies = assay: Insecticidal action in the dark: fly survival after porphyrin bait; details: fed 24 h, survival 12 h after change to porphyrin-free bait
Description: (§3) These flies were then used in the various experimental sessions. […] The number of survivors was evaluated 12 h after switching from administration of a porphyrin-containing bait to a porphyrin-free bait. In none of the experiments was mortality or any apparent toxic effect observed in control flies (flies not fed with porphyrin, see survival at 0 μM porphyrin concentration).

[5] = test system: Stomoxis calcitrans flies; assay: as above; details: fed 24 h, survival 12 h after change to porphyrin-free bait
Description: as §3

[6] = test system: Stomoxis calcitrans (stable fly); assay: Uptake of alkylated porphyrins by flies fed porphyrin-containing bait; details: S. calcitrans
Description: (§4) Porphyrins: • a) meso[tri(N-methyl-pyridyl), mono(N-dodecyl-pyridyl)]porphine (abbr.: C12) • b) meso[tri(N-methyl-pyridyl), mono(N-tetradecyl-pyridyl)]porphine (abbr.: C14) • c) meso[tri(N-methyl-pyridyl), mono(N-octadecyl-pyridyl)]porphine (abbr.: C18) Bait: Aqueous solution containing 10% sucrose and 1% autolysed yeast Flies: • a) Ceratitis capitata (fruit fly) age: 1 week; weight: 5-6 mg • b) Bactrocera oleae (olive fly) age: 10 days; weight: 4-4.5 mg • c) Stomoxis calcitrans (stable fly) age: 10 days; weight: 12 mg Irradiation: • a) High pressure halogen lamp, equipped with infrared and UV filters, emission 360-850 nm, operated at intensities in the 760-2,000 μE s^−1m^−2 range • b) Sunlight, mid June at Padua latitude, average intensity of […] μE s^−1m^−2 with minimum and maximum values of 950 and, respectively, 1,380 μE s^−1m^−2
as §1, §2

[7] = test system: Ceratitis capitata (fruit fly); assay: as above; details: C. capitata
Description: as §4, §1, §2

[8] = test system: Bactrocera oleae (olive fly); assay: as above; details: B. oleae
Description: as §4, §1, §2

Ceratitis capitata flies [9] = assay: Insecticidal action in the dark: fly survival after porphyrin bait; details: dark, fed 24 h, survival 12 h after change to porphyrin-free bait
How it was run: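 Flies fed porphyrin-containing bait, then switched to porphyrin-free bait; survivors counted 12 h after the switch, in darkness. Control flies received bait without porphyrin (0 μM).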

[10] = exposure time to bait 3 h, porphyrin in bait 1.24 μM
[11] = exposure time to bait 12 h, porphyrin in bait 1.24 μM
[12] = exposure time to bait 24 h, porphyrin in bait 1.24 μM
[13] = porphyrin concentration in bait 0.75 (μmoles), feeding 24 h
[14] = porphyrin concentration in bait 1.25 (μmoles), feeding 24 h
[15] = porphyrin concentration in bait 2.10 (μmoles), feeding 24 h
[16] = porphyrin concentration in bait 3.50 (μmoles), feeding 24 h
[17] = porphyrin concentration in bait 6.00 (μmoles), feeding 24 h

CCCCCCCCCCCCCCCCCC[n+]1ccc(-c2c3nc(c(-c4cc[n+](C)cc4)c4ccc([nH]4)c(-c4cc[n+](C)cc4)c4nc(c(-c5cc[n+](C)cc5)c5ccc2[nH]5)C=C4)C=C3)cc1 [C18, meso[tri(N-methyl-pyridyl), mono(N-octadecyl-pyridyl)]porphine]
Recoveries (nmoles of porphyrin per fly), release ([1]; 12 h after feeding interrupted): 4.2 nmoles of porphyrin per fly | Recoveries (nmoles of porphyrin per fly), release ([1]; 24 h after feeding interrupted): 2.3 nmoles of porphyrin per fly | Recoveries (nmoles of porphyrin per fly), release ([1]; 48 h after feeding interrupted): 1.1 nmoles of porphyrin per fly | Recoveries (nmoles of porphyrin per fly), release ([2]; 12 h after feeding interrupted): 3.7 nmoles of porphyrin per fly | Recoveries (nmoles of porphyrin per fly), release ([2]; 24 h after feeding interrupted): 2.2 nmoles of porphyrin per fly | Recoveries (nmoles of porphyrin per fly), release ([2]; 48 h after feeding interrupted): 1.0 nmoles of porphyrin per fly | Recoveries (nmoles of porphyrin per fly), release ([3]; 12 h after feeding interrupted): 3.8 nmoles of porphyrin per fly | Recoveries (nmoles of porphyrin per fly), release ([3]; 24 h after feeding interrupted): 1.7 nmoles of porphyrin per fly | Recoveries (nmoles of porphyrin per fly), release ([3]; 48 h after feeding interrupted): 0.6 nmoles of porphyrin per fly | Survival (% of control untreated flies) (Ceratitis capitata flies [4]; sunlight (average 1150 μE s^−1m^−2) 15 min): 80 % of control untreated flies | Survival (% of control untreated flies) (Ceratitis capitata flies [4]; sunlight (average 1150 μE s^−1m^−2) 30 min): 75 % of control untreated flies | Survival (% of control untreated flies) (Ceratitis capitata flies [4]; sunlight (average 1150 μE s^−1m^−2) 45 min): 61 % of control untreated flies | Survival (% of control untreated flies) (Ceratitis capitata flies [4]; sunlight (average 1150 μE s^−1m^−2) 60 min): 31 % of control untreated flies | Survival (% of control untreated flies) (Bactrocera oleae flies; 0.75 μM in bait): 100 % of control untreated flies | Survival (% of control untreated flies) (Bactrocera oleae flies; 1.25 μM in bait): 100 % of control untreated flies | Survival (% of control untreated flies) (Bactrocera oleae flies; 2.10 μM in bait): 53 % of control untreated flies | Survival (% of control untreated flies) (Bactrocera oleae flies; 3.00 μM in bait): 39 % of control untreated flies | Survival (% of control untreated flies) (Bactrocera oleae flies; 5.00 μM in bait): 16 % of control untreated flies | Survival (% of control untreated flies) (Bactrocera oleae flies; 8.10 μM in bait): 3 % of control untreated flies | Survival (% of control untreated flies) ([5]; 0.75 μM in bait): 100 % of control untreated flies | Survival (% of control untreated flies) ([5]; 1.25 μM in bait): 79 % of control untreated flies | Survival (% of control untreated flies) ([5]; 2.10 μM in bait): 45 % of control untreated flies | Survival (% of control untreated flies) ([5]; 3.00 μM in bait): 24 % of control untreated flies | Survival (% of control untreated flies) ([5]; 5.00 μM in bait): 10 % of control untreated flies | Survival (% of control untreated flies) ([5]; 8.10 μM in bait): 0 % of control untreated flies | Recoveries (nmoles of porphyrin per fly) [6, 10]: 3.2 nmoles of porphyrin per fly | Recoveries (nmoles of porphyrin per fly) [6, 11]: 8.9 nmoles of porphyrin per fly | Recoveries (nmoles of porphyrin per fly) [6, 12]: 9.2 nmoles of porphyrin per fly | Recoveries (nmoles of porphyrin per fly) [6, 13]: 5.9 nmoles of porphyrin per fly | Recoveries (nmoles of porphyrin per fly) [6, 14]: 9.2 nmoles of porphyrin per fly | Recoveries (nmoles of porphyrin per fly) [6, 15]: 12.8 nmoles of porphyrin per fly | Recoveries (nmoles of porphyrin per fly) [6, 16]: 15.7 nmoles of porphyrin per fly | Recoveries (nmoles of porphyrin per fly) [6, 17]: 15.7 nmoles of porphyrin per fly | Recoveries (nmoles of porphyrin per fly) [7, 10]: 3.1 nmoles of porphyrin per fly | Recoveries (nmoles of porphyrin per fly) [7, 11]: 6.6 nmoles of porphyrin per fly | Recoveries (nmoles of porphyrin per fly) [7, 12]: 7.5 nmoles of porphyrin per fly | Recoveries (nmoles of porphyrin per fly) [7, 13]: 3.6 nmoles of porphyrin per fly | Recoveries (nmoles of porphyrin per fly) [7, 14]: 7.5 nmoles of porphyrin per fly | Recoveries (nmoles of porphyrin per fly) [7, 15]: 8.3 nmoles of porphyrin per fly | Recoveries (nmoles of porphyrin per fly) [7, 16]: 14.3 nmoles of porphyrin per fly | Recoveries (nmoles of porphyrin per fly) [7, 17]: 16.2 nmoles of porphyrin per fly | Recoveries (nmoles of porphyrin per fly) [8, 10]: 1.6 nmoles of porphyrin per fly | Recoveries (nmoles of porphyrin per fly) [8, 11]: 7.7 nmoles of porphyrin per fly | Recoveries (nmoles of porphyrin per fly) [8, 12]: 8.9 nmoles of porphyrin per fly | Recoveries (nmoles of porphyrin per fly) [8, 13]: 5.2 nmoles of porphyrin per fly | Recoveries (nmoles of porphyrin per fly) [8, 14]: 8.9 nmoles of porphyrin per fly | Recoveries (nmoles of porphyrin per fly) [8, 15]: 9.7 nmoles of porphyrin per fly | Recoveries (nmoles of porphyrin per fly) [8, 16]: 12.0 nmoles of porphyrin per fly | Recoveries (nmoles of porphyrin per fly) [8, 17]: 12.9 nmoles of porphyrin per fly | Survival (% of control untreated flies) (Ceratitis capitata flies [9]; 0.75 μM in bait): 100 % of control untreated flies | Survival (% of control untreated flies) (Ceratitis capitata flies [9]; 1.25 μM in bait): 42 % of control untreated flies | Survival (% of control untreated flies) (Ceratitis capitata flies [9]; 2.10 μM in bait): 29 % of control untreated flies | Survival (% of control untreated flies) (Ceratitis capitata flies [9]; 3.00 μM in bait): 12 % of control untreated flies | Survival (% of control untreated flies) (Ceratitis capitata flies [9]; 5.00 μM in bait): 2 % of control untreated flies | Survival (% of control untreated flies) (Ceratitis capitata flies [9]; 8.10 μM in bait): 0 % of control untreated flies
